Test results as given in PubChem BioAssay AID256 (DTP/NCI, 2004).
Toxic doses and inconclusive results are not listed. Rule for the calls: active = survival T/C of 150% or more; inactive = T/C below 125% in these data.

Test system: CD2F1 mice, L1210 leukemia ip, survival T/C
Assay: NCI In Vivo Anticancer Drug Screen. Data for tumor model L1210 Leukemia (intraperitoneal) in CD2F1 (CDF1) mice
Conditions: endpoint: mean survival time, higher = longer survival
Outline: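 In this screen, transplantable tumors were grown in mice given either the compound or its vehicle. Results were expressed as the treated measurement relative to the control measurement.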

[1] = dose: 100.0 mg/kg/injection, schedule: Q04DX002 (ip), vehicle: saline with Tween-80
[2] = dose: 200.0 mg/kg/injection, schedule: Q04DX002 (ip), vehicle: saline with Tween-80
[3] = dose: 100.0 mg/kg/injection, schedule: Q04DX003 (ip), vehicle: saline with Tween-80
[4] = dose: 200.0 mg/kg/injection, schedule: Q04DX003 (ip), vehicle: saline with Tween-80

Measured: T/C

CC1=CC(O)(C2(O)C=C(C)CC(C)(C)C2)CC(C)(C)C1 (configuration not stated)
inactive: dose: 100.0 mg/kg/injection, schedule: Q01DX009 (ip), vehicle: other 102 % of control | dose: 100.0 mg/kg/injection, schedule: Q04DX003 (ip), vehicle: other 102 % of control | dose: 200.0 mg/kg/injection, schedule: Q01DX009 (ip), vehicle: other 90 % of control | dose: 200.0 mg/kg/injection, schedule: Q04DX003 (ip), vehicle: other 96 % of control | dose: 400.0 mg/kg/injection, schedule: Q01DX009 (ip), vehicle: other 88 % of control | dose: 400.0 mg/kg/injection, schedule: Q04DX003 (ip), vehicle: other 94 % of control

[Co+3].[NH-]CC[NH-].[NH-]CC[NH-].[NH-]CC[NH-].[O-][I+2]([O-])O
inactive: [1] 100 % of control | [2] 96 % of control

COC/C(=N/Nc1ccc([N+](=O)[O-])cc1[N+](=O)[O-])c1ccccc1
inactive: [3] 102 % of control | [4] 108 % of control | dose: 400.0 mg/kg/injection, schedule: Q04DX003 (ip), vehicle: saline with Tween-80 100 % of control

O=[N+]([O-])c1ccc(Cl)c2ncccc12
inactive: [3] 101 % of control | [4] 104 % of control

O=C(Nc1ccccc1)OCC1CC2C=CC1C2 (configuration not stated)
inactive: dose: 75.0 mg/kg/injection, schedule: Q01DX001 (ip), vehicle: saline with Tween-80 111 % of control | dose: 150.0 mg/kg/injection, schedule: Q01DX001 (ip), vehicle: saline with Tween-80 94 % of control | dose: 300.0 mg/kg/injection, schedule: Q01DX001 (ip), vehicle: saline with Tween-80 94 % of control

CCNC(=O)C(=O)NCC
inactive: [1] 103 % of control | [2] 100 % of control | dose: 400.0 mg/kg/injection, schedule: Q04DX002 (ip), vehicle: saline with Tween-80 103 % of control

Nc1ccn(C2CC(O)C(CO)C2)c(=O)n1 (configuration not stated)
inactive: dose: 100.0 mg/kg/injection, schedule: Q01DX001 (ip), vehicle: saline 100 % of control | dose: 200.0 mg/kg/injection, schedule: Q01DX001 (ip), vehicle: saline 105 % of control | dose: 400.0 mg/kg/injection, schedule: Q01DX001 (ip), vehicle: saline 97 % of control

FC(F)(F)c1cccc(C(OCCN2CCCC2)c2ccccc2)c1 (configuration not stated)
inactive: dose: 6.25 mg/kg/injection, schedule: Q01DX009 (ip), vehicle: saline 105 % of control | dose: 12.5 mg/kg/injection, schedule: Q01DX009 (ip), vehicle: saline 105 % of control | dose: 25.0 mg/kg/injection, schedule: Q01DX009 (ip), vehicle: saline 109 % of control

COC1CCCC[CH]1[Hg][Br] (configuration not stated)
inactive: dose: 3.13 mg/kg/injection, schedule: Q01DX009 (ip), vehicle: saline with Tween-80 102 % of control

O=C(O)C1C2CCC(C2)C1C(=O)O (configuration not stated)
inactive: dose: 25.0 mg/kg/injection, schedule: Q04DX002 (ip), vehicle: saline with Tween-80 118 % of control | dose: 50.0 mg/kg/injection, schedule: Q04DX002 (ip), vehicle: saline with Tween-80 100 % of control | dose: 100.0 mg/kg/injection, schedule: Q01DX001 (ip), vehicle: Klucel (hydroxypropylcellulose) (HPC) 108 % of control | [1] 89 % of control | [3] 105 % of control | dose: 200.0 mg/kg/injection, schedule: Q01DX001 (ip), vehicle: Klucel (hydroxypropylcellulose) (HPC) 98 % of control | [2] 93 % of control | [4] 102 % of control | dose: 400.0 mg/kg/injection, schedule: Q01DX001 (ip), vehicle: Klucel (hydroxypropylcellulose) (HPC) 96 % of control

CCOC1CC2c3ccccc3C1c1cccc[n+]12 (configuration not stated)
inactive: dose: 100.0 mg/kg/injection, schedule: Q04DX003 (ip), vehicle: saline 104 % of control

CCOc1ccc(-n2c(O)c(N=Nc3ccccc3OC)c(=O)n(-c3ccccc3)c2=S)cc1
inactive: dose: 100.0 mg/kg/injection, schedule: Q01DX001 (ip), vehicle: saline with Tween-80 93 % of control | dose: 200.0 mg/kg/injection, schedule: Q01DX001 (ip), vehicle: saline with Tween-80 91 % of control

O=C(O)c1ccc(C(=O)O)c(C(=O)O)c1.[NH-]C1CCCCC1[NH-].[Pd+2]
inactive: dose: 9.36 mg/kg/injection, schedule: Q04DX003 (ip), vehicle: sodium bicarbonate 98 % of control | dose: 18.75 mg/kg/injection, schedule: Q04DX003 (ip), vehicle: sodium bicarbonate 101 % of control | dose: 75.0 mg/kg/injection, schedule: Q04DX003 (ip), vehicle: sodium bicarbonate 101 % of control | dose: 150.0 mg/kg/injection, schedule: Q04DX003 (ip), vehicle: sodium bicarbonate 101 % of control
